Measured values reported in patent US20050020565A1, “CCK-1 receptor modulators” (priority 2003, published 2005).

Target: T1, CCK-1 receptor (Homo sapiens, UniProt P32238)
T1 construct: expressed in transfected cells; membranes
T1 sequence (P32238 1-428): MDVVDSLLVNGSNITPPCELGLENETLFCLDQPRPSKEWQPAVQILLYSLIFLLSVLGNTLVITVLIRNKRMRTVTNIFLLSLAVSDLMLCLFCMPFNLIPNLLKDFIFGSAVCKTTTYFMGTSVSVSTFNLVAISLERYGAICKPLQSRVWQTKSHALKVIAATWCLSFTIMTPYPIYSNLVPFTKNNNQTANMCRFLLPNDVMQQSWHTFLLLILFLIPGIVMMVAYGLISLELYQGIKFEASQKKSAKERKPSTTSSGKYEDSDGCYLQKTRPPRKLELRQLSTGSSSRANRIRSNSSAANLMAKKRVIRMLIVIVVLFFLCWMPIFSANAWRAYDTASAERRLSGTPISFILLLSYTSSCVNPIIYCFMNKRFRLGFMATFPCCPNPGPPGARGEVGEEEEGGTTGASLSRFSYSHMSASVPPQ
Assay: CCK-1 receptor radioligand binding assay ([125I]-BH-CCK-8S displacement, membranes of stably transfected CHO-K1 cells)
Conditions: membranes of CHO-K1 cells stably transfected with CCK-1 receptor, 0.3 μM PD-134,308 present
Protocol: CHO-K1 cells that had undergone-stable transfection with the CCK-1 receptor were grown in DMEM supplemented with L-glutamine (2 mM), penicillin (50 units/mL) and streptomycin (50 μg/mL). Cells were cultured under continuous G418 selection (2 mM) and were harvested using a rubber cell scraper. CHO-K1 cells were sub-cultured a maximum of ten times before being reseeded from the original stocks.
Membranes were prepared from the stably transfected CHO-K1 cells. Frozen cell pellets (−40° C.) were thawed in 14 mL of buffer A (10 mM HEPES, 130 mM NaCl, 4.7 mM KCl, 5 mM MgCl, 1 mM EGTA and 15.4 mg/100 mL bacitracin at pH 7.2), adapted from Harper et al. (Br. J. Pharmacol. (1996) 118, pp 1717-1726). The thawed pellets were homogenized using a Polytron PT-10 (7×1 s). The homogenates were centrifuged for 5 min at 1500 rpm (600×g), and the resulting pellets were discarded. The supernatants were re-centrifuged in order to collect the receptor-membrane pellets (25 min 15,000 rpm; 39,800×g), which were re-suspended in buffer A.
All assays were conducted in 96-well plates (GF/B millipore filter plates) using buffer A, with 0.3 μM PD-134,308, for the dilutions. The CCK-2 receptor ligand was included to eliminate the contribution of this receptor subtype to the binding. For the optimal cell number determination experiments 20 pM [1251]-BH—CCK-8S (50 μL 60 pM solution) was incubated with a range of cell concentrations (2.5×105 to 12.5×10^5 cells/well) in a total volume of 150 μL. Total binding of [1251]-BH—CCK-8S was determined in the presence of 15 μL of buffer A. Non-specific binding of [1 251]-BH—CCK-8S was determined in the presence of 15 μL of 100 μM 2-naphthalenesulphonyl L-aspartyl-(2-phenethyl)amide (2-NAP: see R. A. Hull et al., Br. J. Pharmacol. (1993) 108, pp 734-740), a CCK-1 receptor selective antagonist that is structurally unrelated to the radioligand [1251]-BH—CCK-8S. The assay preparation was incubated for 1 h at 21±3° C., and then the assay was terminated upon rapid filtration of the preparation under reduced pressure. The loaded filters were washed three times using undiluted PBS (100 μL), and then the residues were transferred to 5 mL scintillation tubes. Bound radioactivity was determined using a gamma counter (count time=1 min). From these experiments a cell concentration of 1 pellet in 40 mL of buffer (2.5×10^6 cells/mL) was chosen for use in other assays (below). To validate the radioligand concentration and incubation time for the assay, saturation and kinetic binding studies were also conducted (see M. F. Morton, The Pharmacological Characterization of Cholecystokinin Receptors in the Human Gastrointestinal Tract. PhD Thesis, University of London, 2000). The affinity of novel compounds was estimated by incubating membrane preparations with 15 μL of competing ligand (0.1 pM-1 mM) for 60 min at 21±3° C. The assay was then terminated according to the procedure outlined above.
The pKi values were determined using the equation of Cheng and Prusoff (Biochem. Pharmacol. (1973) 22, pp 3099-3108): [formula]
To circumvent problems associated with computer-assisted data analysis of compounds with low affinity, the data obtained in the current study were weighted according to a method described by Morton (2000). In brief, 100% and 0% specific binding were defined independently using total binding and binding obtained in the presence of a high concentration of the reference antagonist, 2-NAP.

| SMILES | Ki |
| --- | --- |
| COc1ccc(-n2nc(C[C@H](C(=O)O)c3cccc(C)c3)cc2-c2ccc(Cl)c(Cl)c2)cc1 [Example 1] | 10 nM |
| COc1ccc(-n2nc(C[C@@H](C(=O)O)c3cccc(C)c3)cc2-c2ccc(Cl)c(Cl)c2)cc1 [Example 3] | 251 nM |
| COc1ccc(-n2nc(CC(C(=O)O)c3cccc(Cl)c3)cc2-c2ccc(C)cc2)cc1 (centres unmarked) [Example 7] | 7.94 nM |
| COc1ccc(-n2nc(CC(C(=O)O)c3cccc(F)c3F)cc2-c2ccc(Cl)c(Cl)c2)cc1 (centres unmarked) [Example 18] | 39.8 nM |
| COc1ccc(-n2nc(CC(C(=O)O)c3ccccc3C(F)(F)F)cc2-c2ccc(Cl)c(Cl)c2)cc1 (centres unmarked) [Example 19] | 31.6 nM |
| Cc1ccc(-c2cc(CC(C(=O)O)c3cccc(C(F)(F)F)c3F)nn2-c2ccc(Cl)c(Cl)c2)cc1 (centres unmarked) [Example 21] | 158 nM |
| Cc1ccc(-c2cc(CC(C(=O)O)c3cccc(I)c3)nn2-c2ccc(Cl)c(Cl)c2)cc1 (centres unmarked) [Example 24] | 20 nM |
| Cc1ccc(-c2cc(CC(C(=O)O)c3cccc(SC(F)(F)F)c3)nn2-c2ccc(Cl)c(Cl)c2)cc1 (centres unmarked) [Example 26] | 79.4 nM |
| COc1ccc(-n2nc(C[C@@H](C(=O)O)c3cccc4ccccc34)cc2-c2ccc3c(c2)OCO3)cc1 [Example 28] | 1260 nM |
| COc1ccc(-n2nc(C[C@H](C(=O)O)c3cccc4ccccc34)cc2-c2ccc3c(c2)OCO3)cc1 [Example 29] | 39.8 nM |
| COc1ccc(-c2cc(C[C@@H](C(=O)O)c3cccc(OC)c3)nn2-c2ccc(OC)cc2)cc1 [Example 31] | 1000 nM |
| COc1ccc(-c2cc(C[C@H](C(=O)O)c3cccc(OC)c3)nn2-c2ccc(OC)cc2)cc1 [Example 32] | 63.1 nM |
| COc1ccc(-n2nc(CC(C(=O)O)c3cccc(Cl)c3)cc2-c2ccc(Cl)cc2)cc1 (centres unmarked) [Example 37] | 20 nM |
| Cc1ccc(-c2cc(CC(C(=O)O)c3cccc(C)c3)nn2-c2ccc(C)cc2)cc1 (centres unmarked) [Example 40] | 7.94 nM |
| COc1cccc(C(Cc2cc(-c3ccc(C)cc3)n(-c3ccc(Cl)c(Cl)c3)n2)C(=O)O)c1 (centres unmarked) [Example 42] | 6.31 nM |
| Cc1ccc(-c2cc(CC(C(=O)O)c3ccccc3Cl)nn2Cc2ccccc2)cc1 (centres unmarked) [Example 43] | 100 nM |
| Cc1ccc(-c2cc(CC(C(=O)O)c3cccc(Cl)c3Cl)nn2-c2ccc(Cl)c(Cl)c2)cc1 (centres unmarked) [Example 46] | 20 nM |
| Cc1cccc(C(Cc2cc(-c3ccc4ccccc4c3)[nH]n2)C(=O)O)c1 (centres unmarked) [Example 47] | 200 nM |
| Cc1cccc(C(Cc2cc(-c3ccc(Cl)c(Cl)c3)nn2C)C(=O)O)c1 (centres unmarked) [Example 48] | 79.4 nM |
| Cc1cccc(C(Cc2cc(-c3ccc4ccccc4c3)nn2C2CCCCC2)C(=O)O)c1 (centres unmarked) [Example 50] | 100 nM |
| Cc1cccc(C(Cc2cc(-c3ccc4ccccc4c3)n(C3CCCCC3)n2)C(=O)O)c1 (centres unmarked) [Example 51] | 5.01 nM |
| Cc1cccc(C(Cc2cc(-c3ccc4ccccc4c3)n(-c3ccccn3)n2)C(=O)O)c1 (centres unmarked) [Example 52] | 10 nM |
| COc1ccc(-n2nc(/C=C(/C(=O)O)c3cccc(C)c3)cc2-c2ccc(Cl)c(Cl)c2)cc1 [Example 75] | 79.4 nM |

Further lines, results first:

| Ki | SMILES |
| --- | --- |
| 39.8 nM | Cc1cccc(C(Cc2cc(-c3ccc(Cl)c(Cl)c3)n(-c3ccc(S(C)(=O)=O)cc3)n2)C(=O)O)c1 (centres unmarked) [Example 54] |
| 50.1 nM | Cc1cccc(C(Cc2cc(-c3cccnc3)n(-c3ccc(Cl)cc3Cl)n2)C(=O)O)c1 (centres unmarked) [Example 56] |
| 501 nM | Cc1cccc(C(Cc2cc(-c3ccc(OCc4ccccc4)cc3)n(-c3ccc(OC(F)(F)F)cc3)n2)C(=O)O)c1 (centres unmarked) [Example 58] |
| 3.16 nM | Cc1ccc(-n2nc(CC(C(=O)O)c3cccc(C)c3)cc2-c2ccc(N(C)C)cc2)cc1 (centres unmarked) [Example 59] |
| 5.01 nM | COc1cc(-c2cc(CC(C(=O)O)c3cccc(C)c3)nn2-c2ccc(C)cc2)ccc1C (centres unmarked) [Example 60] |
| 50.1 nM | COc1ccc(-n2nc(CC(C(=O)NC3CCCCC3O)c3cccc(C)c3)cc2-c2ccc(C)cc2)cc1 (centres unmarked) [Example 64] |
| 2000 nM | COc1ccc(-n2nc(CC(C(N)=O)c3cccc(C)c3)cc2-c2ccc(C)cc2)cc1 (centres unmarked) [Example 65] |
| 20 nM | COc1ccc(-n2nc(CC(C(=O)N(C)C)c3cccc(C)c3)cc2-c2ccc(C)cc2)cc1 (centres unmarked) [Example 66] |
| 251 nM | COc1ccc(-n2nc(CC(C(=O)N3CCN(C)CC3)c3cccc(C)c3)cc2-c2ccc(C)cc2)cc1 (centres unmarked) [Example 68] |
| 25.1 nM | COc1ccc(-n2nc(CC(C(=O)O)c3c[nH]c4ccccc34)cc2-c2ccc(C)cc2)cc1 (centres unmarked) [Example 71] |
| 50.1 nM | COc1ccc(-n2nc(CC(C(=O)O)c3cn(C)c4ccccc34)cc2-c2ccc(C)cc2)cc1 (centres unmarked) [Example 72] |
| 6.31 nM | COc1ccc(-n2nc(CC(c3cccc(C)c3)c3nnn[nH]3)cc2-c2ccc(C)cc2)cc1 (centres unmarked) [Example 74] |
| 15.8 nM | Cc1ccc(-n2nc(CC(C(=O)O)c3cccc(C)c3)cc2-c2ccc(Br)cc2)cc1 (centres unmarked) [Example 77] |
| 126 nM | Cc1cccc(C(Cc2cc(-c3cccc4ccccc34)nn2-c2ccccn2)C(=O)O)c1 (centres unmarked) [Example 79] |
| 12.6 nM | Cc1cccc(C(Cc2cc(-c3ccc4ccccc4c3)n(-c3ccc(C(F)(F)F)cn3)n2)C(=O)O)c1 (centres unmarked) [Example 80] |
| 1260 nM | Cc1cccc(C(Cc2cc(-c3ccc4c(c3)OCO4)nn2CC2CCCCC2)C(=O)O)c1 (centres unmarked) [Example 82] |
| 63.1 nM | Cc1cccc(C(Cc2cc(-c3ccc4ccccc4c3)nn2Cc2ccccc2)C(=O)O)c1 (centres unmarked) [Example 83] |
| 3.98 nM | Cc1ccc(-n2nc(CC(C(=O)O)c3cccc(C)c3)cc2-c2ccc(N(C)C)cc2)cc1 (centres unmarked) [Example 86] |
| 25.1 nM | Cc1ccc(-n2nc(CC(C(=O)O)c3cccc(C)c3)cc2-c2ccc3c(c2)CCN3C)cc1 (centres unmarked) [Example 87] |
| 39.8 nM | Cc1cccc(C(Cc2cc(-c3ccc4ccccc4c3)nn2Cc2ccncc2)C(=O)O)c1 (centres unmarked) [Example 88] |
| 794 nM | Cc1ccc(-n2nc(-c3cccc(N(C)C)c3)cc2CC(C(=O)O)c2cccc(C)c2)cc1 (centres unmarked) [Example 90] |
| 12.6 nM | Cc1ccc(-n2nc(CC(C(=O)O)c3cccc(C)c3)cc2-c2cccc(N(C)C)c2)cc1 (centres unmarked) [Example 91] |
| 6.31 nM | Cc1cccc([C@H](Cc2cc(-c3ccc4ccccc4c3)n(-c3ccccn3)n2)C(=O)O)c1 [Example 92] |
| 251 nM | Cc1cccc([C@@H](Cc2cc(-c3ccc4ccccc4c3)n(-c3ccccn3)n2)C(=O)O)c1 [Example 93] |
| 15.8 nM | Cc1ccc(-n2nc(CC(C(=O)O)c3cccc(C)c3)cc2-c2ccc(N(C)C(C)C)cc2)cc1 (centres unmarked) [Example 101] |
| 39.8 nM | Cc1ccc(-n2nc(CC(C(=O)O)c3cccc(C)c3)cc2-c2ccc(N3CCCC3=O)cc2)cc1 (centres unmarked) [Example 104] |
| 316 nM | Cc1cccc(C(Cc2cc(-c3ccc4ccccc4c3)n(-c3cccc[n+]3[O-])n2)C(=O)O)c1 (centres unmarked) [Example 105] |
| 63.1 nM | Cc1ccc(-n2nc(CC(C(=O)O)c3cccc(C)c3)cc2-c2ccc3ncccc3c2)cc1 (centres unmarked) [Example 106] |
| 12.6 nM | O=C(O)/C(=C\c1cc(-c2ccc(Cl)c(Cl)c2)n(-c2ccccn2)n1)c1cccc(Cl)c1 [Example 110] |
| 3.98 nM | O=C(O)/C(=C\c1cc(-c2ccc(Cl)c(Cl)c2)n(-c2cc(Cl)ccc2Cl)n1)c1cccc(Cl)c1 [Example 111] |
